Measurements from PubChem BioAssay AID651896 (Broad Institute, 2012).

Tested on: L-6 rat myocyte cytotoxicity, plate reader
Test: cytotoxicity in L-6 rat myocytes, dose response, cytotoxicity control, cell-based, plate reader, cherry-pick (AID 651896)

Work on `C[C@@H]1CN([C@@H](C)CO)C(=O)c2cccc(NC(=O)c3ccncc3)c2O[C@H]1CN(C)Cc1ccc(Oc2ccccc2)cc1` yielded an IC50 of 10.8 µM.
